The nature of assay [1]: Inhibition of rice alpha-glucosidase assessed as reduction of p-nitrophenol release using p-nitrophenyl glycoside as substrate by spectrophotometric analysis. Also noted: species or system Oryza sativa.
A further assay addresses Alpha-glucosidase (Saccharomyces cerevisiae S288c, UniProt P53341+P38158+P07265). As to the kind of experiment: Inhibition of yeast alpha-glucosidase assessed as reduction of p-nitrophenol release using p-nitrophenyl glycoside as substrate by spectrophotometric analysis. It counts as protein assay.
A further assay has as its target Beta-glucuronidase (Escherichia coli (strain K12), UniProt P05804). Briefly: Inhibition of Escherichia coli beta-glucuronidase assessed as reduction of p-nitrophenol release using p-nitrophenyl-glycoside as substrate by spectrophotometric analysis.
The species entered for a further assay is Bos taurus. Briefly: Inhibition of bovine liver beta-glucuronidase assessed as reduction of p-nitrophenol release using p-nitrophenyl-glycoside as substrate at 1000 uM by spectrophotometric analysis relative to control.
A short description of assay [2]: Inhibition of bovine liver beta-glucosidase assessed as reduction of p-nitrophenol release using p-nitrophenyl glycoside as substrate by spectrophotometric analysis. Set-up: species or system Bos taurus.
The species named for the next assay is Sus scrofa. As to the kind of experiment: Inhibition of porcine kidney alpha/alpha-trehalase assessed as reduction of p-nitrophenol release using p-nitrophenyl glycoside as substrate at 1000 uM by spectrophotometric analysis relative to control.
Assay [3] addresses Alpha-galactosidase (Coffea arabica) (UniProt Q42656). Briefly: Inhibition of coffee beans alpha-galactosidase assessed as reduction of p-nitrophenol release using p-nitrophenyl glycoside as substrate at 1000 uM by spectrophotometric analysis relative to control.
Assay [4] in a line: Inhibition of rat intestinal maltase assessed as D-glucose release using maltose as substrate at pH 6.8 by colorimetric method.
The subject of the next assay is Penicillium decumbens. As to the kind of experiment: Inhibition of Penicillium decumbens alpha-L-rhamnosidase assessed as reduction of p-nitrophenol release using p-nitrophenyl-glycoside as substrate at 1000 uM by spectrophotometric analysis relative to control.
The target in assay [5] is T1, Alpha-mannosidase (Canavalia ensiformis) (UniProt C0HJB3).
T1 sequence (whole entry): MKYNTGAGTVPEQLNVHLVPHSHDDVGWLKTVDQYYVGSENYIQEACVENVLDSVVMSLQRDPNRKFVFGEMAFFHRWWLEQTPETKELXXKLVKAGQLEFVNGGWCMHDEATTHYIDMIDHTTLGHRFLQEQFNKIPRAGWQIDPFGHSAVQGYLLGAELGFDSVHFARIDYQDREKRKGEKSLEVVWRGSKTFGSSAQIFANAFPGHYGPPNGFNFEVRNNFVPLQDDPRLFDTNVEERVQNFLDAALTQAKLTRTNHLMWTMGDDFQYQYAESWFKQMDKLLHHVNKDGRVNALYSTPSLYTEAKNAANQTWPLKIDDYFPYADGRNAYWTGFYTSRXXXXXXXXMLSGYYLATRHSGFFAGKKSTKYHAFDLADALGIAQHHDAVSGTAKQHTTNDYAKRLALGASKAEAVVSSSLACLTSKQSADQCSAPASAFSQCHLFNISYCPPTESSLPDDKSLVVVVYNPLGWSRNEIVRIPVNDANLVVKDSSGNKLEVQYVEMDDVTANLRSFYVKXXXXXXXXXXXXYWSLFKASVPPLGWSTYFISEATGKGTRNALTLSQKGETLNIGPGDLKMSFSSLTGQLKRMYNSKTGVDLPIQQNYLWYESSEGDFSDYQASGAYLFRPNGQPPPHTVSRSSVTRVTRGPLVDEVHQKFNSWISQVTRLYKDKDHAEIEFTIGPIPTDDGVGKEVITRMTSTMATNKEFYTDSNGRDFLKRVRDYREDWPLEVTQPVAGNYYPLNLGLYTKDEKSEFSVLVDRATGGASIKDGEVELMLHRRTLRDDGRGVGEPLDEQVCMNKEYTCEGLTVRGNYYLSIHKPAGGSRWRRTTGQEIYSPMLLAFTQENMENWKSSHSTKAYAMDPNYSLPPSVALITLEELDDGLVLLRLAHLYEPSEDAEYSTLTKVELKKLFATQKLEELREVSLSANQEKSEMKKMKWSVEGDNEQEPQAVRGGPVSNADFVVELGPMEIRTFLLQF
Briefly: Inhibition of jack bean alpha-mannosidase assessed as reduction of p-nitrophenol release using p-nitrophenyl glycoside as substrate at 1000 uM by spectrophotometric analysis relative to control.

A short description of assay [6]: Inhibition of human lysosomal beta-glucosidase assessed as reduction of p-nitrophenol release using p-nitrophenyl glycoside as substrate by spectrophotometric analysis.
A further assay concerns Helix pomatia. As to the kind of experiment: Inhibition of snail beta-mannosidase assessed as reduction of p-nitrophenol release using p-nitrophenyl glycoside as substrate at 1000 uM by spectrophotometric analysis relative to control.
Assay [7] is described as follows: Inhibition of almond beta-glucosidase assessed as reduction of p-nitrophenol release using p-nitrophenyl glycoside as substrate by spectrophotometric analysis. Also noted: species or system Prunus dulcis.
Assay [8] can be described thus: Inhibition of bovine liver beta-galactosidase assessed as reduction of p-nitrophenol release using p-nitrophenyl glycoside as substrate by spectrophotometric analysis. Also noted: species or system Bos taurus.
The nature of assay [9]: Inhibition of Aspergillus niger amyloglucosidase assessed as reduction of p-nitrophenol release using p-nitrophenyl-glycoside as substrate by spectrophotometric analysis.
Assay [10] concerns the target T2, Tissue alpha-L-fucosidase (Bos taurus) (UniProt Q2KIM0).
T2 sequence (whole entry): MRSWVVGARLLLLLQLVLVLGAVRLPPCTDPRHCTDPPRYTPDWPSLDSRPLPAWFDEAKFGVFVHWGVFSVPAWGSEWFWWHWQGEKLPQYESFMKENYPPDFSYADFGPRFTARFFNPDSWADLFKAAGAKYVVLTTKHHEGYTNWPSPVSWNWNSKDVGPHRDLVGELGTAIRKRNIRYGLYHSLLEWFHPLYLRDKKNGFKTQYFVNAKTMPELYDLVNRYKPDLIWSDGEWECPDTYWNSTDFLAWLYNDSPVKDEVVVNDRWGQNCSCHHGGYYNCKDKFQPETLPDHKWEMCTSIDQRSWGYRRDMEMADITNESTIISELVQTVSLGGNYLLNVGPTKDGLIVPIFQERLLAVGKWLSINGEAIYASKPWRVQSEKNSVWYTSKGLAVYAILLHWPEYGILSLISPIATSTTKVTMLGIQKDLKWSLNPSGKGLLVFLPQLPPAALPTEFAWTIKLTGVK
Briefly: Inhibition of bovine kidney alpha-L-fucosidase assessed as reduction of p-nitrophenol release using p-nitrophenyl glycoside as substrate at 1000 uM by spectrophotometric analysis relative to control.

In another assay the test system is Aspergillus niger. Briefly: Inhibition of Aspergillus niger amyloglucosidase assessed as reduction of p-nitrophenol release using p-nitrophenyl-glycoside as substrate at 1000 uM by spectrophotometric analysis relative to control.
Assay [11] has as its target Alpha-glucosidase (Saccharomyces cerevisiae S288c) (UniProt P53341+P38158+P07265). Briefly: Inhibition of yeast alpha-glucosidase assessed as reduction of p-nitrophenol release using p-nitrophenyl glycoside as substrate at 1000 uM by spectrophotometric analysis relative to control. It counts as protein assay.
The subject of a further assay is Oryza sativa. As to the kind of experiment: Inhibition of rice alpha-glucosidase assessed as reduction of p-nitrophenol release using p-nitrophenyl glycoside as substrate at 1000 uM by spectrophotometric analysis relative to control.
For the next assay, the species on record is Rattus norvegicus. As to the kind of experiment: Inhibition of rat intestinal maltase assessed as D-glucose release using maltose as substrate at pH 6.8 at 1000 uM by colorimetric method relative to control.

Here are results for eight molecules from ChEMBL document CHEMBL5331098, “Nanomolar β-glucosidase and β-galactosidase inhibition by enantiomeric α-1-C-alkyl-1,4-dideoxy-1,4-imino-arabinitol derivatives” (Eur J Med Chem, 2023).

pIC50: −log10 of the molar value.

Sequence of Alpha-galactosidase (Coffea arabica) (Q42656 16-378 limits assumed): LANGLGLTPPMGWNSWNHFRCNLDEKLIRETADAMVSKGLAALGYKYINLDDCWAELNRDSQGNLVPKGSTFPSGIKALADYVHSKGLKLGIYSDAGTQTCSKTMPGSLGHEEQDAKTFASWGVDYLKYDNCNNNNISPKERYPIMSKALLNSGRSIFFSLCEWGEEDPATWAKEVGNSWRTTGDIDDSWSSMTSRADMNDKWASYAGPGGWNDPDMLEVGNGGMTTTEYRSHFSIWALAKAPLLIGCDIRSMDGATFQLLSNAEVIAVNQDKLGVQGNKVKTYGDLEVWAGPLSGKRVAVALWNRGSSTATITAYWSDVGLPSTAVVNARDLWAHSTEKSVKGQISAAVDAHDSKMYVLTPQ
Sequence of Beta-glucuronidase (P05804 whole entry): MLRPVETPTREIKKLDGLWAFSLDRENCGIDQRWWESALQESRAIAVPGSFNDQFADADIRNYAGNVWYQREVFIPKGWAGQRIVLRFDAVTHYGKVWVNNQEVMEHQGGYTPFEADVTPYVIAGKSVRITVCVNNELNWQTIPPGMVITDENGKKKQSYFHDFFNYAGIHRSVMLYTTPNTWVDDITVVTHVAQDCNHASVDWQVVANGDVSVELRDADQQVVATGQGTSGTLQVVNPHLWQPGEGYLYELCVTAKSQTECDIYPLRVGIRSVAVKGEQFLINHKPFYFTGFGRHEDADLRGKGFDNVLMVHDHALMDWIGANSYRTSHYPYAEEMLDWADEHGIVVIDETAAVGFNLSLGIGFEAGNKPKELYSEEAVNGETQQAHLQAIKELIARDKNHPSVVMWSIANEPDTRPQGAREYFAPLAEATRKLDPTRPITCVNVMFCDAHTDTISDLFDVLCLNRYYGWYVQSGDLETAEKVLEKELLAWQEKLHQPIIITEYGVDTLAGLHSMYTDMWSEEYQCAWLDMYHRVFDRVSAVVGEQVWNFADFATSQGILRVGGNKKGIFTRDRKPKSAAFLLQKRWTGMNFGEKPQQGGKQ

With `Cl.OC[C@H]1N[C@H](CCCCCCCc2ccc(Cl)cc2)[C@@H](O)[C@@H]1O`, the pIC50 (as a rule, the IC50 on a negative log10 scale, so that one unit is a factor of ten) in assay [1] was 4.82; on Beta-glucuronidase, 4.66; in assay [2], 7.27; in assay [4], 4.85; in assay [6], 5.17; in assay [7] it was 4.89. In addition, the pIC50 is 7.85 in assay [8] and 4.37 in assay [9]. Besides, the IC50 (commonly the midpoint of a concentration-inhibition curve) on Alpha-glucosidase amounted to 40 µM. Moreover, the inhibition (commonly the percentage by which the read-out fell short of the control) in the assay filed under Bos taurus is 6%; in the assay listed under Sus scrofa, 7.7%; in assay [3], 2.6%; with Penicillium decumbens, 11.2%; in [5] it was 0%; in the assay with Helix pomatia, 34.9%. In [10], the inhibition turned out to be 0%.
For `OC[C@H]1N[C@H]([C@@H](O)CCCCCCc2ccc(F)cc2)[C@@H](O)[C@@H]1O`, the pIC50 was 4.21 on Beta-glucuronidase; 7.05 in [2]; 5.28 in [6]; 6.33 in assay [7]; 7.60 in [8]. For the same molecule, the inhibition in the assay filed under Bos taurus worked out at 0.3%; with Aspergillus niger it was 46.4%; in assay [11], 42.8%; in the assay listed under Sus scrofa, 7.5%; in assay [3] it was 0.6%; with Penicillium decumbens it was 4%. The inhibition with Oryza sativa came out at 21.3%; in the assay listed under Rattus norvegicus, 23.9%; in assay [5] it was 0%; in the assay with Helix pomatia it was 46.3%; in assay [10], 1.5%.
For the molecule `OC[C@H]1N[C@H]([C@@H](O)CCCCCCc2ccccc2)[C@@H](O)[C@@H]1O`, the negative logarithm of the IC50 (pIC50) on Beta-glucuronidase is 4.37; in assay [2], 6.89; in assay [6], 5.12; in assay [7], 6.21; in assay [8] it was 7.38. In addition, the inhibition in the assay filed under Bos taurus was found to be 0%; in the assay on Aspergillus niger it was 39.7%; in assay [11], 14.1%; in the assay listed under Sus scrofa, 4.5%; in assay [3], 0%; in the assay with Penicillium decumbens, 3.5%. The inhibition with Oryza sativa came out at 15.8%; in the assay listed under Rattus norvegicus, 18.6%; in assay [5], 0%; in the assay with Helix pomatia, 37.6%; in assay [10], 0%.
`Cc1ccc(CCCCCCC[C@H]2N[C@H](CO)[C@@H](O)[C@@H]2O)cc1.Cl`: at Alpha-glucosidase, the IC50 was found to be 92 µM. The pIC50 was 4.38 on Beta-glucuronidase; 7.47 in assay [2]; 5.28 in [6]; 5.00 in [7]; 8.10 in assay [8]; 4.48 in assay [9]. For the same molecule, the inhibition in the assay filed under Bos taurus amounted to 0%; in the assay listed under Sus scrofa it was 3.5%; in assay [3] it was 9.7%; with Penicillium decumbens, 14.5%; with Oryza sativa it was 34.4%; in the assay listed under Rattus norvegicus it was 49.9%. Besides, the values for the inhibition (in assay [5]; in the assay with Helix pomatia; in [10]) were 3.5%, 37% and 8.6%, respectively.
For `Cl.OC[C@H]1N[C@H](CCCCCCCc2cccc(F)c2)[C@@H](O)[C@@H]1O`, the IC50 on Alpha-glucosidase amounted to 17.2 µM. Further, the pIC50 at Beta-glucuronidase is 4.71; in assay [2] it was 7.40; in assay [7], 4.94; in assay [8], 7.96; in assay [9] it was 4.39. The inhibition in the assay filed under Bos taurus is 6.9%; in the assay filed under Sus scrofa it was 7.5%; in assay [3] it was 1.1%; in the assay with Penicillium decumbens it was 10%; with Oryza sativa, 21.3%; in the assay filed under Rattus norvegicus, 32.8%. Also, the inhibition in assay [5] is 3.1%; in the assay with Helix pomatia it was 36.6%; in assay [10], 2.7%.
On to `Cl.OC[C@H]1N[C@H](CCCCCCCc2ccc(F)cc2)[C@@H](O)[C@@H]1O`, for which the IC50 on Alpha-glucosidase was found to be 32.2 µM. The pIC50 was 4.46 at Beta-glucuronidase; 7.37 in assay [2]; 4.81 in [7]; 8.10 in assay [8]; 4.50 in [9]. For the same molecule, the inhibition in the assay filed under Bos taurus worked out at 42.5%; in the assay listed under Sus scrofa, 4%; in [3], 20.5%; with Penicillium decumbens it was 13%; with Oryza sativa, 11.7%; in the assay listed under Rattus norvegicus, 15.9%. In addition, the values for the inhibition (in assay [5]; in the assay with Helix pomatia; in assay [10]) were 22.7%, 37.1% and 38.7%, respectively.
On to `OC[C@H]1N[C@H]([C@@H](O)CCCCCCc2ccc(F)c(F)c2)[C@@H](O)[C@@H]1O`, for which the pIC50 on Beta-glucuronidase was 4.60; in assay [2], 7.05; in assay [6] it was 5.42; in assay [7] it was 5.82; in assay [8] it was 7.59; in assay [9], 4.23. Moreover, the inhibition stood at 1.6% in the assay listed under Bos taurus; 25.2% in [11]; 0% in the assay filed under Sus scrofa; 0% in assay [3]; 2.2% in the assay on Penicillium decumbens; 18.4% in the assay on Oryza sativa. Further, the inhibition in the assay listed under Rattus norvegicus came to 15%; in [5], 0%; in the assay with Helix pomatia, 48.6%; in assay [10] it was 0.3%.
Consider `Cl.OC[C@H]1N[C@H]([C@@H](O)CCCCCCc2ccc(Cl)cc2)[C@@H](O)[C@@H]1O`, for which, on Alpha-glucosidase, the IC50 is 59 µM. Also, the pIC50 at Beta-glucuronidase was 4.89; in assay [2], 7.15; in assay [6], 5.21; in assay [7], 5.92; in assay [8], 7.62. Besides, the inhibition stood at 0% in the assay listed under Bos taurus; 41.7% in the assay with Aspergillus niger; 5.5% in the assay filed under Sus scrofa; 0% in assay [3]; 3.5% in the assay on Penicillium decumbens; 16.5% in the assay with Oryza sativa. For the same molecule, the inhibition in the assay listed under Rattus norvegicus came out at 1.1%; in assay [5], 0%; in the assay with Helix pomatia, 45.4%; in assay [10], 2.1%.
